Experimental data taken from patent publication US8192962B2, “Processes for detecting toxic substances” (Daikin Industries, Ltd., priority 2001, dated 2012).

System: Transport facilitation protein genes
Test: DNA chip mRNA expression in yeast, transport facilitation protein genes (Table 5)
Assay type: cell-based, Saccharomyces cerevisiae S288C
How it was run: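 S. cerevisiae S288C grown at 25° C in YPD were exposed in log phase for two hours to one toxic chemical at a growth-inhibiting, non-lethal concentration; untreated cells served as control. Poly(A) mRNA was reverse-transcribed with Cy3/Cy5-dUTP and hybridized to a whole-genome yeast DNA chip at 65° C for over 12 hours; values are fluorescence ratios versus untreated.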

SMILES: O=[N+]([O-])c1cc[n+]([O-])c2ccccc12 [(5), 4-nitroquinolin-N-oxide]
- The level of expressed mRNA in the presence of chemical substance/The level of expressed mRNA in the absence of chemical substance (yeast gene YGR281W): 0.6
- The level of expressed mRNA in the presence of chemical substance/The level of expressed mRNA in the absence of chemical substance (yeast gene YHL035C): 0.9
- The level of expressed mRNA in the presence of chemical substance/The level of expressed mRNA in the absence of chemical substance (yeast gene YHL040C): 1.1
- The level of expressed mRNA in the presence of chemical substance/The level of expressed mRNA in the absence of chemical substance (yeast gene YHL047C): 1.2
- The level of expressed mRNA in the presence of chemical substance/The level of expressed mRNA in the absence of chemical substance (yeast gene YHR026W): 1.1
- The level of expressed mRNA in the presence of chemical substance/The level of expressed mRNA in the absence of chemical substance (yeast gene YHR092C): 1.4
- The level of expressed mRNA in the presence of chemical substance/The level of expressed mRNA in the absence of chemical substance (yeast gene YHR094C): 1.1
- The level of expressed mRNA in the presence of chemical substance/The level of expressed mRNA in the absence of chemical substance (yeast gene YHR175W): 0.9
- The level of expressed mRNA in the presence of chemical substance/The level of expressed mRNA in the absence of chemical substance (yeast gene YIL006W): 0.8
- The level of expressed mRNA in the presence of chemical substance/The level of expressed mRNA in the absence of chemical substance (yeast gene YIL022W): 0.8
- The level of expressed mRNA in the presence of chemical substance/The level of expressed mRNA in the absence of chemical substance (yeast gene YIL056W): 1.2
- The level of expressed mRNA in the presence of chemical substance/The level of expressed mRNA in the absence of chemical substance (yeast gene YIL088C): 1.6
- The level of expressed mRNA in the presence of chemical substance/The level of expressed mRNA in the absence of chemical substance (yeast gene YJL034W): 1.2
- The level of expressed mRNA in the presence of chemical substance/The level of expressed mRNA in the absence of chemical substance (yeast gene YJL212C): 1.2
- The level of expressed mRNA in the presence of chemical substance/The level of expressed mRNA in the absence of chemical substance (yeast gene YJL219W): 1.2
- The level of expressed mRNA in the presence of chemical substance/The level of expressed mRNA in the absence of chemical substance (yeast gene YJR077C): 0.9
- The level of expressed mRNA in the presence of chemical substance/The level of expressed mRNA in the absence of chemical substance (yeast gene YJR106W): 0.9
- The level of expressed mRNA in the presence of chemical substance/The level of expressed mRNA in the absence of chemical substance (yeast gene YJR121W): 0.8
- The level of expressed mRNA in the presence of chemical substance/The level of expressed mRNA in the absence of chemical substance (yeast gene YKL016C): 1.5
- The level of expressed mRNA in the presence of chemical substance/The level of expressed mRNA in the absence of chemical substance (yeast gene YKL146W): 1.0
- The level of expressed mRNA in the presence of chemical substance/The level of expressed mRNA in the absence of chemical substance (yeast gene YKR039W): 1.0
- The level of expressed mRNA in the presence of chemical substance/The level of expressed mRNA in the absence of chemical substance (yeast gene YKR067W): 1.3
- The level of expressed mRNA in the presence of chemical substance/The level of expressed mRNA in the absence of chemical substance (yeast gene YLL028W): 0.9
- The level of expressed mRNA in the presence of chemical substance/The level of expressed mRNA in the absence of chemical substance (yeast gene YLR081W): 1.0
- The level of expressed mRNA in the presence of chemical substance/The level of expressed mRNA in the absence of chemical substance (yeast gene YLR295C): 2.2
- The level of expressed mRNA in the presence of chemical substance/The level of expressed mRNA in the absence of chemical substance (yeast gene YLR348C): 0.9
- The level of expressed mRNA in the presence of chemical substance/The level of expressed mRNA in the absence of chemical substance (yeast gene YLR378C): 1.0
- The level of expressed mRNA in the presence of chemical substance/The level of expressed mRNA in the absence of chemical substance (yeast gene YMR011W): 0.9
- The level of expressed mRNA in the presence of chemical substance/The level of expressed mRNA in the absence of chemical substance (yeast gene YMR162C): 0.9
- The level of expressed mRNA in the presence of chemical substance/The level of expressed mRNA in the absence of chemical substance (yeast gene YMR203W): 0.6
- The level of expressed mRNA in the presence of chemical substance/The level of expressed mRNA in the absence of chemical substance (yeast gene YNL055C): 0.9
- The level of expressed mRNA in the presence of chemical substance/The level of expressed mRNA in the absence of chemical substance (yeast gene YNL259C): 1.1
- The level of expressed mRNA in the presence of chemical substance/The level of expressed mRNA in the absence of chemical substance (yeast gene YNR072W): 1.0
- The level of expressed mRNA in the presence of chemical substance/The level of expressed mRNA in the absence of chemical substance (yeast gene YOL119C): 1.5
- The level of expressed mRNA in the presence of chemical substance/The level of expressed mRNA in the absence of chemical substance (yeast gene YOL156W): 1.2
- The level of expressed mRNA in the presence of chemical substance/The level of expressed mRNA in the absence of chemical substance (yeast gene YOL163W): 0.9
- The level of expressed mRNA in the presence of chemical substance/The level of expressed mRNA in the absence of chemical substance (yeast gene YOR035C): 1.0
- The level of expressed mRNA in the presence of chemical substance/The level of expressed mRNA in the absence of chemical substance (yeast gene YOR130C): 1.8
- The level of expressed mRNA in the presence of chemical substance/The level of expressed mRNA in the absence of chemical substance (yeast gene YOR153W): 1.0
- The level of expressed mRNA in the presence of chemical substance/The level of expressed mRNA in the absence of chemical substance (yeast gene YOR270C): 0.8
- The level of expressed mRNA in the presence of chemical substance/The level of expressed mRNA in the absence of chemical substance (yeast gene YOR273C): 1.1
- The level of expressed mRNA in the presence of chemical substance/The level of expressed mRNA in the absence of chemical substance (yeast gene YOR316C): 1.0
- The level of expressed mRNA in the presence of chemical substance/The level of expressed mRNA in the absence of chemical substance (yeast gene YOR328W): 1.0
- The level of expressed mRNA in the presence of chemical substance/The level of expressed mRNA in the absence of chemical substance (yeast gene YOR332W): 0.9
- The level of expressed mRNA in the presence of chemical substance/The level of expressed mRNA in the absence of chemical substance (yeast gene YOR348C): 0.9
- The level of expressed mRNA in the presence of chemical substance/The level of expressed mRNA in the absence of chemical substance (yeast gene YPL036W): 1.3
- The level of expressed mRNA in the presence of chemical substance/The level of expressed mRNA in the absence of chemical substance (yeast gene YPL134C): 1.4
- The level of expressed mRNA in the presence of chemical substance/The level of expressed mRNA in the absence of chemical substance (yeast gene YPL265W): 1.0
- The level of expressed mRNA in the presence of chemical substance/The level of expressed mRNA in the absence of chemical substance (yeast gene YPL271W): 1.4
- The level of expressed mRNA in the presence of chemical substance/The level of expressed mRNA in the absence of chemical substance (yeast gene YPR124W): 2.0
- The level of expressed mRNA in the presence of chemical substance/The level of expressed mRNA in the absence of chemical substance (yeast gene YPR192W): 1.2
- The level of expressed mRNA in the presence of chemical substance/The level of expressed mRNA in the absence of chemical substance (yeast gene YPR194C): 1.3
